Values joined by “and” are separate entries in the source; they are usually repeats but may differ in a detail not shown here. Equal entries are not always repeated.
Assays:
[1] = tested on: PHSVX Phaseolus vulgaris (Garden bean); experiment: Ipfencarbazone biostimulant effect, early post emergence foliar application, greenhouse pots, plant height: dry bean; format: in vivo; conditions: PHSVX PEROLA
Excerpt: (§1) The original objective of this Example was to evaluate the herbicidal effect of ipfencarbazone when applied as a post emergent treatment to a range of selected crops and weeds. Unexpectedly, crop plant growth stimulation was observed. The actual species of weeds and crops are listed in the summary data tabulated below and in FIGS. 1-13. By convention each plant species has a Bayer code (5-letter name) with the scientific name for the plant referenced in FIGS. 1-13. In each Figure, each tray contains the same configuration of weeds and/or crops. In each Figure there is one replication of each treatment (six treatments in total). The top three photographs in each Figure show the Bayer Codes and bottom three photographs are aligned with the top three facilitating viewing of the same plant species. Throughout the Examples various abbreviations as conventional shorthand notation and will be appreciated by those skilled in the art. Some exemplary abbreviations include, “CV”=Co-efficient of Variation,” “LSD”=Least Significant Difference” (G/L (gram per L) AND GA/L (gram of active ingredient per L); “SC”=suspension concentrate formulation. The diluent in all treatments was water. By convention factors that are identical in all treatments (e.g. diluent and surfactant) are not listed in each treatment.
(§2) Methods: The indicated size pots (see Tables below) are filled with a specific soil, the soil properties being indicated below. The referenced crops and weeds are planted by hand in each pot. […] The experiments include six treatments each replicated three times on each crop/weed species. At a specific time after emergence each crop and weed species was treated with ipfencarbazone plus a non-ionic surfactant (NIS). In the present Example, the surfactant employed was ENERGIC™ (non-ionic surfactant). The application timing is indicated in each of the Tables (1 or 2 leaf stage) below. Ipfencarbazone plus surfactant was diluted in water and applied at a rate equivalent to about 250 L/ha. Ipfencarbazone was applied using a track sprayer. After treatment, the pots were randomized in a greenhouse. At each assessment (indicated by “days after treatment” or DAT) the height of each plant was measured. The letters next to each mean indicate the level of statistical significance.
(§3) Replications: 3, Untreated treatments: 1, Design: Randomized Complete Block (RCB), Treatment units: Treated ‘Plot’ experimental unit size, Dry Form. Unit: %, Treated ‘Plot’ experimental unit size Width: 1 meter, Treated ‘Plot’ experimental unit size Length: 1.4 meters, Application volume: 250 L/ha, Mix size: 0.15 liters, […]

[2] = tested on: BRADC Brachiaria decumbens (Surinam grass); experiment: Ipfencarbazone biostimulant effect, early post emergence foliar application, greenhouse pots, plant height: Surinam grass; format: in vivo; conditions: for HEIGHT, percent of untreated check (APoC) / HEIGHT, treatment mean: BRADC BASILISK; for Plant HEIGHT, Mean / Plant HEIGHT, single plots: Surinam grass BASILISK
Excerpt: as §1, §2, §3

[3] = 15 DA-A, 62.5 g ai/ha + Energic NIS 0.2 % v/v
[4] = 15 DA-A, 125 g ai/ha + Energic NIS 0.2 % v/v
[5] = 15 DA-A, 500 g ai/ha + Energic NIS 0.2 % v/v
[6] = 28 DA-A, 62.5 g ai/ha + Energic NIS 0.2 % v/v
[7] = 28 DA-A, 125 g ai/ha + Energic NIS 0.2 % v/v
[8] = 28 DA-A, 250 g ai/ha + Energic NIS 0.2 % v/v
[9] = 28 DA-A, 500 g ai/ha + Energic NIS 0.2 % v/v

CC(C)N(C(=O)n1cnn(-c2ccc(Cl)cc2Cl)c1=O)c1ccc(F)cc1F [ARY-0572-001, ipfencarbazone]
HEIGHT, treatment mean ([1]; 250 g ai/ha, 28 DA-A, AS square root transformation (t)): 0.3 a cm and 0.3t cm | HEIGHT, single plots (replicates) ([1]; 250 g ai/ha, 28 DA-A, plots 104, 201, 306): 0.0 cm (2×) and 2.0 cm | HEIGHT, percent of untreated check (APoC) ([1]; 500 g ai/ha, 15 DA-A): (6.7%) | HEIGHT, treatment mean ([1]; 500 g ai/ha, 15 DA-A): 0.7 c cm and 0.7 cm | HEIGHT, single plots (replicates) ([1]; 500 g ai/ha, 15 DA-A, plots 105, 202, 301): 2.0 cm and 0.0 cm (2×) | HEIGHT, percent of untreated check (APoC) ([1]; 500 g ai/ha, 28 DA-A, AS square root transformation): (155.1%) | HEIGHT, treatment mean ([1]; 500 g ai/ha, 28 DA-A, AS square root transformation (t)): 20.2 a cm and 20.2t cm | HEIGHT, single plots (replicates) ([1]; 500 g ai/ha, 28 DA-A, plots 105, 202, 301): 73.0 cm and 0.0 cm and 25.0 cm | HEIGHT, percent of untreated check (APoC) ([1]; 1000 g ai/ha, 15 DA-A): (59.0%) | HEIGHT, treatment mean ([1]; 1000 g ai/ha, 15 DA-A): 5.8 b cm and 5.8 cm | HEIGHT, single plots (replicates) ([1]; 1000 g ai/ha, 15 DA-A, plots 106, 203, 304): 5.0 cm and 6.7 cm and 5.8 cm | HEIGHT, percent of untreated check (APoC) ([1]; 1000 g ai/ha, 28 DA-A, AS square root transformation): (51.7%) | HEIGHT, treatment mean ([1]; 1000 g ai/ha, 28 DA-A, AS square root transformation (t)): 6.7 a cm and 6.7t cm | HEIGHT, single plots (replicates) ([1]; 1000 g ai/ha, 28 DA-A, plots 106, 203, 304): 6.3 cm and 7.3 cm and 6.7 cm | HEIGHT, percent of untreated check (APoC) ([2]; 62.5 g ai/ha, 15 DA-A): (167.8%) | HEIGHT, treatment mean ([2]; 62.5 g ai/ha, 15 DA-A): 33.8 a cm | HEIGHT, percent of untreated check (APoC) ([2]; 62.5 g ai/ha, 28 DA-A): (164.1%) | HEIGHT, treatment mean ([2]; 62.5 g ai/ha, 28 DA-A): 55.4 bc cm | HEIGHT, percent of untreated check (APoC) ([2]; 125 g ai/ha, 15 DA-A): (139.1%) | HEIGHT, treatment mean ([2]; 125 g ai/ha, 15 DA-A): 28.1 ab cm | HEIGHT, percent of untreated check (APoC) ([2]; 125 g ai/ha, 28 DA-A): (146.7%) | HEIGHT, treatment mean ([2]; 125 g ai/ha, 28 DA-A): 49.6 cd cm | HEIGHT, percent of untreated check (APoC) ([2]; 250 g ai/ha, 15 DA-A): (141.3%) | HEIGHT, treatment mean ([2]; 250 g ai/ha, 15 DA-A): 28.5 ab cm | HEIGHT, percent of untreated check (APoC) ([2]; 250 g ai/ha, 28 DA-A): (233.6%) | HEIGHT, treatment mean ([2]; 250 g ai/ha, 28 DA-A): 78.9 a cm | HEIGHT, percent of untreated check (APoC) ([2]; 500 g ai/ha, 15 DA-A): (93.1%) | HEIGHT, treatment mean ([2]; 500 g ai/ha, 15 DA-A): 18.8 bc cm | HEIGHT, percent of untreated check (APoC) ([2]; 500 g ai/ha, 28 DA-A): (210.5%) | HEIGHT, treatment mean ([2]; 500 g ai/ha, 28 DA-A): 71.1 ab cm | HEIGHT, percent of untreated check (APoC) ([2]; 1000 g ai/ha, 15 DA-A): (54.0%) | HEIGHT, treatment mean ([2]; 1000 g ai/ha, 15 DA-A): 10.9 c cm | HEIGHT, percent of untreated check (APoC) ([2]; 1000 g ai/ha, 28 DA-A): (74.0%) | HEIGHT, treatment mean ([2]; 1000 g ai/ha, 28 DA-A): 25.0 e cm | Plant HEIGHT, Mean [2, 3]: 33.8 cm | Plant HEIGHT, single plots [2, 3]: 26.8 cm and 44.7 cm and 30.0 cm | Plant HEIGHT, Mean [2, 4]: 28.1 cm | Plant HEIGHT, single plots [2, 4]: 27.8 cm and 23.7 cm and 32.7 cm | Plant HEIGHT, Mean ([2]; 15 DA-A, 250 g ai/ha + Energic NIS 0.2 % v/v): 28.5 cm | Plant HEIGHT, Mean [2, 5]: 18.8 cm | Plant HEIGHT, single plots [2, 5]: 21.3 cm and 13.7 cm | Plant HEIGHT, Mean ([2]; 15 DA-A, 1000 g ai/ha + Energic NIS 0.2 % v/v): 10.9 cm | Plant HEIGHT, Mean [2, 6]: 55.4 cm | Plant HEIGHT, single plots [2, 6]: 48.3 cm and 76.0 cm and 42.0 cm | Plant HEIGHT, Mean [2, 7]: 49.6 cm | Plant HEIGHT, single plots [2, 7]: 53.0 cm and 44.7 cm and 51.0 cm | Plant HEIGHT, Mean [2, 8]: 78.9 cm | Plant HEIGHT, single plots [2, 8]: 89.7 cm and 91.7 cm and 55.3 cm | Plant HEIGHT, Mean [2, 9]: 71.1 cm | Plant HEIGHT, single plots [2, 9]: 67.3 cm and 77.0 cm and 69.0 cm | Plant HEIGHT, Mean ([2]; 28 DA-A, 1000 g ai/ha + Energic NIS 0.2 % v/v): 25.0 cm

Reference: US20170318812A1, “Plant and Crop Growth Regulating/Biostimulant Formulations and Methods of Use” (Arysta Lifescience North America, LLC, priority 2014, published 2017)
